Test results taken from patent US9410956B1, “Micro-RNA profiling in ovarian cancer” (University of South Florida, priority 2008, dated 2016).

What was measured:
A2780CP cells [1] = assay: MTT cell viability assay after knockdown of miR-214; assay type: cell-based, human; details: knockdown of miR-214 alone, 150 pMol oligonucleotide per well
Procedure: (§1) FIG. 4B: An image showing an MTT assay. The 2′-O-me-anti-miR-214- or scramble 2′-O-me-transfected A2780CP cells were treated with 20 uM of cisplatin or DMSO vehicle for the indicated times and examined for cell viability.
(§2) 2′-O-methyl (2′-O-me) oligoribonucleotides were synthesized by Integrated DNA Technologies. The sequences of 2′-O-methyl-anti-miR-214 and -miR-199a* are: 5′-[…]-3′ (SEQ ID NO: 1) and 5′-[…] UGUA-3′ (SEQ ID NO: 3). 2′-O-me-scrambled miR (5′-[…]-3′) (SEQ ID NO: 15) was used as a control. Cells were grown in 6-well plate (1.7×10^6 cells/well) for 24 h and transfected with 150 pMol of 2′-O-me oligoribonucleotides per well using Lipofectamine 2000. RNA and protein were extracted after 72 h transfection.
(§3) A2780CP cells were transfected with 2′-O-methyl-anti-miR-214. The cells transfected with 2′-O-methyl-scramble-miR were used as control. […] Further, the cells were treated with cisplatin or vehicle DMSO.

PTEN [2] = assay: Immunoblot of PTEN protein after knockdown of miR-214 in A2780CP cells; assay type: cell-based, human; details: 72 h
Procedure: (§4) FIG. 2B: An image showing miR-214 reduces PTEN protein but not mRNA levels. HIOSE-80 cells (left panels) were transfected with pcDNA3.1/V5-His-Topo-miR-214, -miR199a* and vector alone and immunoblotted with indicated antibodies (panels 1-4). The expression of miR-214 and miR-199a* was determined by qRT-PCR (panels 5 and 6). PTEN mRNA level was measured by RT-PCR (panel 8). U6 (panel 7) and GAPDH (bottom panel) were used for controls. Middle and right panels show knockdown of miR-214 inducing PTEN expression. A2780CP cells were transfected with antisense 2′-O-methyl oligonucleotide targeting miR-214 at concentration of […] (6 well plate) with Lipofectamine 2000. Anti-miR199a* and scramble 2′-O-methyl oligonucleotide were used as controls. After incubation of 72 h, cells were lysed and immunoblotted with indicated antibodies (middle).
as §2, with “transfection. […]” for “transfection.”

miR-214 = assay: qRT-PCR of miR-214 level after 2′-O-methyl oligonucleotide transfection; assay type: cell-based, human; details: A2780CP cells, 72 h after transfection
Procedure: FIG. 4A: An image showing A2780CP, a cisplatin-resistant cell line and expressing elevated levels of endogenous miR-214, was transfected with 2′-O-me-anti-miR-214 or scramble 2′-O-me oligonucleotides and assayed with qRT-PCR with primers of miR-214 (top) and U6 (bottom).
Expression of miRNAs was also analyzed by RNase protection or mirVana qRT-PCR miRNA detection assay. For RNase protection assay, enriched small RNA was purified using the miRVana miRNA Isolation Kit (Ambion). The mirVana™ miRNA probe construction kit (Ambion) was used to synthesize the ^32P-labeled miR-214 probe. Probe hybridization and RNase protection were then carried out using the mirVana™ miRNA detection kit (Ambion) according to manufacturer's instructions. After hybridization and RNase treatment, the double-strand products were resolved in a 15% polyacrylamide 8 M urea denaturing gel and visualized using phosphoimaging and autoradiography. mirVana qRT-PCR was performed according to the manufacturer's protocol (Ambion). PCR products were analyzed by electrophoresis on a 7.5% polyacrylamide gel in 0.5×TBE and visualized by ethidium bromide staining.
2′-O-methyl (2′-O-me) oligoribonucleotides were synthesized by Integrated DNA Technologies. The sequences of 2′-O-methyl-anti-miR-214 and -miR-199a* are: 5′-[…]-3′ (SEQ ID NO: 1) and 5′-[…] UGUA-3′ (SEQ ID NO: 3). […]

Akt = assay: Immunoblot of phospho-Akt and Akt substrates after knockdown of miR-214 in A2780CP cells; assay type: cell-based, human; details: 72 h
Procedure: as §4
as §2, with “transfection. […]” for “transfection.”

A2780CP cells [3] = assay: Cisplatin-induced apoptosis after knockdown of miR-214 (MTT, subG1 flow cytometry); assay type: cell-based, human; details: 20 uM cisplatin
Procedure: as §1
FIG. 4C: An image showing flow cytometry. Indicated cells were treated with cisplatin or DMSO for 12 h and the subG1 population was identified by flow cytometry.
as §3

PTEN [4] = details: ovarian cancer cell lines (Schondorf et al. 2004); cited from earlier work
ovarian cancer = details: adjuvant chemotherapy, ovarian cancer patients (Aghajanian 2004); cited from earlier work

5′-CUGCCUGUCUGUGCCUGCUGU-3′ (all 2'-O-methyl, backbone not given here) [2′-O-methyl-anti-miR-214, antisense 2′-O-methyl oligoribonucleotide targeting miR-214]
reduction of cell survival (A2780CP cells [1]): about 20%
protein level of PTEN (PTEN [2]): increased
level of miR-214 (miR-214): significantly decreased
phosphorylation levels of Akt and Akt substrates GSK3β and p70S6K (Akt): decreased
sensitization to cisplatin-induced apoptosis (A2780CP cells [3]): considerably sensitized

Nc1ncn([C@H]2C[C@H](O)[C@@H](CO)O2)c(=O)n1 [5-aza-2′ deoxycytidine]
PTEN protein expression (PTEN [4]): failed to restore

N.N.[Cl][Pt][Cl] [cisplatin]
clinical response (share of patients) (ovarian cancer): approximately 80%
